Where two headings read alike, the source gives them in different places.
Biological target: human wild-type CFTR (Homo sapiens, UniProt P13569)
Test: Cell-based plate reader (YFP iodide influx) assay of CFTR function
Parameters: expressed in transfected cells; host or cells: Fischer rat thyroid (FRT) cells stably co-expressing YFP-H148Q
Settings: for % Activation: commercial analogs, FRT cells with YFP and wildtype CFTR, 125 nM forskolin
Method: The initiate rate of I^− influx was computed by determined using exponential regression. All compound plates contained negative controls (DMSO vehicle) and positive controls (20 μM forskolin).
High-throughput screening. […] The initiate rate of I^− influx was computed by determined using exponential regression. All compound plates contained negative controls (DMSO vehicle) and positive controls ([…] forskolin).
Platereader assays of chloride channel function. CFTR activity was assayed as described. […] I^− influx was measured in a plate reader with initial baseline read for 2 s and then for 12 s after rapid addition of an I^−-containing solution. TMEM16A activity was assayed similarly as described using FRT cells co-expressing YFP and TMEM16A. Activity of non-TMEM16A CaCC was assayed as described in HT-29 cells expressing YFP. In each assay initial rates of I^− influx were computed as a linear measure of channel function.

[1] = N,N-diethyl-N′-aryl-1,3,5-triazine diamine analogs, read-out: EC50 for CFTR activation

Chain of human wild-type CFTR (P13569 whole entry): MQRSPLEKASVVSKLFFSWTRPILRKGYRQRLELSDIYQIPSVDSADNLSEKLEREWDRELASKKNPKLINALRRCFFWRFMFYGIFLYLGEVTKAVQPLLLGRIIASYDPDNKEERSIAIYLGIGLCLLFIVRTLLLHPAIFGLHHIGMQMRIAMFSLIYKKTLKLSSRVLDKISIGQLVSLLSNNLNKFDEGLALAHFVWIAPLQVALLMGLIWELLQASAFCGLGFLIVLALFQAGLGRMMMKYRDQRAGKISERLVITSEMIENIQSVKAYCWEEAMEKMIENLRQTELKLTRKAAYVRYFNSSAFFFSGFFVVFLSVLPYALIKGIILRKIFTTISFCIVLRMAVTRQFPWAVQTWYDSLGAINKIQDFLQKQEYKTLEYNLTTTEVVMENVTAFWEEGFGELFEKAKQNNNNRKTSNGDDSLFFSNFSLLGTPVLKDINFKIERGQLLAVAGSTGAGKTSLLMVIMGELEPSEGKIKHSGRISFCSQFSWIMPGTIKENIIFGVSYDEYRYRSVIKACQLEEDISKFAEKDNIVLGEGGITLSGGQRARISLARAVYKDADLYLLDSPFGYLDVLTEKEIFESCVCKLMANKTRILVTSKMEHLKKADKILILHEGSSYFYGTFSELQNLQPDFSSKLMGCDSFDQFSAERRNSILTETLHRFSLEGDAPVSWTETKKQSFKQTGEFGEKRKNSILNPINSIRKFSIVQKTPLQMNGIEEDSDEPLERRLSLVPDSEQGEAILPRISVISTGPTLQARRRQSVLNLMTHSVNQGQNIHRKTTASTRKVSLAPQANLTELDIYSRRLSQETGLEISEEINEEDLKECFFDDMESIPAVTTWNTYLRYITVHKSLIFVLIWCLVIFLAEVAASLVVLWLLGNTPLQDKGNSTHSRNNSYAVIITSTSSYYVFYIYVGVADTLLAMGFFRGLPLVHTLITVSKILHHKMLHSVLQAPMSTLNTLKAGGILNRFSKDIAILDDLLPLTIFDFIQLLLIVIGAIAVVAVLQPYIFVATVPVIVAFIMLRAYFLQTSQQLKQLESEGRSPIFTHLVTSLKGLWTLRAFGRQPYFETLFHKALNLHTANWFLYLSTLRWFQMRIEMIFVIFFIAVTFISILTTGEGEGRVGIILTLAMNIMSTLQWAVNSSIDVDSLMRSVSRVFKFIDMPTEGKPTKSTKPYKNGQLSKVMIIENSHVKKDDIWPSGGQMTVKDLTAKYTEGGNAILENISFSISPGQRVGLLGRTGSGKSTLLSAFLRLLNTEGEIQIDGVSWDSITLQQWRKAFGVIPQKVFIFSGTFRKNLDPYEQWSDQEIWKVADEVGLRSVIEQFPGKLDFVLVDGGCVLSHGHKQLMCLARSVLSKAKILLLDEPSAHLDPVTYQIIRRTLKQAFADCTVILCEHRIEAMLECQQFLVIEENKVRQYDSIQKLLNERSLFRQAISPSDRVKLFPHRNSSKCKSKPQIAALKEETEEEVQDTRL

% Activation [%] | SMILES | further results
32 | CNc1nc(Nc2ccc(C(C)=O)cc2)nc(OC(C(F)(F)F)C(F)(F)F)n1 [K001] | 
63 | C=CCNc1nc(Nc2ccc(F)cc2)nc(OC(C(F)(F)F)C(F)(F)F)n1 [K002] | 
16 | CC(C)(C)Nc1nc(Nc2ccc(OC(F)(F)F)cc2)nc(OCC(F)(F)F)n1 [K003] | 
21 | CNc1nc(Nc2ccccc2C(F)(F)F)nc(OC(C(F)(F)F)C(F)(F)F)n1 [K007] | 
21 | FC(F)(F)C(Oc1nc(Nc2ccccc2)nc(OC(C(F)(F)F)C(F)(F)F)n1)C(F)(F)F [K010] | 
20 | Cc1ccc(Nc2nc(OC(C(F)(F)F)C(F)(F)F)nc(OC(C(F)(F)F)C(F)(F)F)n2)cc1 [K011] | 
19 | Cc1ccccc1Nc1nc(OC(C(F)(F)F)C(F)(F)F)nc(OC(C(F)(F)F)C(F)(F)F)n1 [K012] | 
18 | O=[N+]([O-])c1cccc(Nc2nc(OC(C(F)(F)F)C(F)(F)F)nc(OC(C(F)(F)F)C(F)(F)F)n2)c1 [K014] | 
6 | O=[N+]([O-])c1ccc(Nc2nc(OC(C(F)(F)F)C(F)(F)F)nc(OC(C(F)(F)F)C(F)(F)F)n2)cc1 [K015] | 
19 | CC(=O)c1ccc(Nc2nc(OC(C(F)(F)F)C(F)(F)F)nc(OC(C(F)(F)F)C(F)(F)F)n2)cc1 [K016] | 
16 | FC(F)(F)C(Oc1nc(Nc2cccnc2)nc(OC(C(F)(F)F)C(F)(F)F)n1)C(F)(F)F [K017] | 
64 | CNc1nc(Nc2ccc(OC(F)(F)Cl)cc2)nc(OCC(F)(F)F)n1 [K024] | 
16 | FC(F)(F)COc1nc(Nc2ccc(OC(F)(F)Cl)cc2)nc(OCC(F)(F)F)n1 [K026] | 
20 | CC(C)Nc1nc(Nc2ccc([N+](=O)[O-])cc2)nc(OC(C(F)(F)F)C(F)(F)F)n1 [K027] | 
9 | CC(C)(C)Nc1nc(Nc2ccc(OC(F)(F)Cl)cc2)nc(OCC(F)(F)F)n1 [K029] | 
16 | CCCCNc1nc(Nc2ccc(OC(F)(F)F)cc2)nc(OCC(F)(F)F)n1 [K030] | 
61 | COc1nc(Nc2ccc(O)cc2)nc(OC(C(F)(F)F)C(F)(F)F)n1 [K031] | 
42 | CN(C)c1nc(OC(C(F)(F)F)C(F)(F)F)nc(N(c2ccccc2)c2ccccc2)n1 [K055] | 

Second part, the compound before the results:

SMILES | % Activation [%] | further results
CCN(CC)c1nc(Nc2cccc(C(=O)O)c2)nc(OC(C(F)(F)F)C(F)(F)F)n1 [6a, 3-({4-(diethylamino)-6-[(1,1,1,3,3,3-hexafluoropropan-2-yl)oxy]-1,3,5-triazin-2-yl}amino)benzoic acid] |  | EC50 [1]: 160 nM
CCN(CC)c1nc(Nc2cccc(F)c2)nc(OC(C(F)(F)F)C(F)(F)F)n1 [6b, N,N-Diethyl-N′-(3-fluorophenyl)-6-[(1,1,1,3,3,3-hexafluoropropan-2-yl)oxy]-1,3,5-triazine-2,4-diamine] |  | EC50 [1]: 140 nM
CCN(CC)c1nc(Nc2ccc(C(=O)O)cc2)nc(OC(C(F)(F)F)C(F)(F)F)n1 [6e, 4-({4-(Diethylamino)-6-[(1,1,1,3,3,3-hexafluoropropan-2-yl)oxy]-1,3,5-triazin-2-yl}amino)benzoic acid] |  | EC50 [1]: 900 nM
CCN(CC)c1nc(Nc2ccc(F)cc2)nc(OC(C(F)(F)F)C(F)(F)F)n1 [6f, N,N-Diethyl-N′-(4-fluorophenyl)-6-[(1,1,1,3,3,3-hexafluoropropan-2-yl)oxy]-1,3,5-triazine-2,4-diamine] |  | EC50 [1]: 700 nM
CCN(CC)c1nc(Nc2ccc([N+](=O)[O-])cc2)nc(OC(C(F)(F)F)C(F)(F)F)n1 [6g, N,N-Diethyl-6-[(1,1,1,3,3,3-hexafluoropropan-2-yl)oxy]-N-(4-nitrophenyl)-1,3,5-triazine-2,4-diamine] |  | EC50 [1]: 18000 nM
CCN(CC)c1nc(Nc2ccc3cn[nH]c3c2)nc(OC(C(F)(F)F)C(F)(F)F)n1 [6i, N,N-Diethyl-6-[(1,1,1,3,3,3-hexafluoropropan-2-yl)oxy]-N-(1H-indazol-6-yl)-1,3,5-triazine-2,4-diamine] |  | EC50 (bicyclic aniline analogs, read-out: EC50): 2800 nM
CCN(CC)c1nc(Nc2ccccc2)nc(OCC(F)(F)C(F)F)n1 [7a, N,N-Diethyl-N′-phenyl-6-(2,2,3,3-tetrafluoropropoxy)-1,3,5-triazine-2,4-diamine] |  | EC50 [1]: 2000 nM
CCN(CC)c1nc(Nc2cccc(C(=O)O)c2)nc(OCC(F)(F)C(F)F)n1 [7b, 3-{[4-(Diethylamino)-6-(2,2,3,3-tetrafluoropropoxy)-1,3,5-triazin-2-yl]amino}benzoic acid] |  | EC50 [1]: 500 nM
CCN(CC)c1nc(Nc2cccc(F)c2)nc(OCC(F)(F)C(F)F)n1 [7c, N,N-Diethyl-N′-(3-fluorophenyl)-6-(2,2,3,3-tetrafluoropropoxy)-1,3,5-triazine-2,4-diamine] |  | EC50 [1]: 1600 nM
CCN(CC)c1nc(Nc2cccc(Cl)c2)nc(OCC(F)(F)C(F)F)n1 [7d, N′-(3-Chlorophenyl)-N,N-diethyl-6-(2,2,3,3-tetrafluoropropoxy)-1,3,5-triazine-2,4-diamine] |  | EC50 [1]: 5400 nM
CCN(CC)c1nc(Nc2cccc([N+](=O)[O-])c2)nc(OCC(F)(F)C(F)F)n1 [7e, N,N-Diethyl-N′-(3-nitrophenyl)-6-(2,2,3,3-tetrafluoropropoxy)-1,3,5-triazine-2,4-diamine] |  | EC50 [1]: 1200 nM
CCN(CC)c1nc(Nc2ccc(F)cc2)nc(OCC(F)(F)C(F)F)n1 [7g, N,N-Diethyl-N′-(4-fluorophenyl)-6-(2,2,3,3-tetrafluoropropoxy)-1,3,5-triazine-2,4-diamine] |  | EC50 [1]: 4800 nM
FC(F)(F)C(Oc1nc(Nc2cccc3ccccc23)nc(OC(C(F)(F)F)C(F)(F)F)n1)C(F)(F)F [K004] | 16 | 
O=[N+]([O-])c1ccccc1Nc1nc(OCC(F)(F)F)nc(OCC(F)(F)F)n1 [K005] | 29 | 
COc1nc(Nc2ccccc2)nc(Nc2ccccc2)n1 [K008] | 32 | 
CCOc1nc(Nc2ccccc2)nc(NC2CCCC2)n1 [K009] | 57 | 
O=[N+]([O-])c1ccccc1Nc1nc(OC(C(F)(F)F)C(F)(F)F)nc(OC(C(F)(F)F)C(F)(F)F)n1 [K013] | 15 | 
FC(F)(F)COc1nc(Nc2ccccc2)nc(OCC(F)(F)F)n1 [K018] | 60 | 
Cc1ccccc1Nc1nc(OCC(F)(F)F)nc(OCC(F)(F)F)n1 [K019] | 28 | 
CNc1nc(OCC(F)(F)F)nc(N(c2ccccc2)c2ccccc2)n1 [K020] | 37 | 
COc1nc(NCCN2CCOCC2)nc(Nc2ccccc2)n1 [K021] | 16 | 
COc1nc(Nc2ccc(Cl)cc2)nc(NC(C)(C)C)n1 [K022] | 53 | 

SMILES | % Activation [%] | further results
COc1nc(Nc2ccc([N+](=O)[O-])cc2)nc(OC)n1 [K023] | 41 | 
COc1nc(Nc2ccc(OC)c(Cl)c2)nc(OC)n1 [K028] | 23 | 
COc1nc(NCCO)nc(Nc2ccc(Cl)cc2)n1 [K033] | 22 | 
C=CCNc1nc(Nc2ccc(Cl)cc2)nc(OC)n1 [K034] | 73 | 
COc1nc(Nc2ccc(Cl)cc2)nc(NC2CCCCC2)n1 [K035] | 55 | 
CCCCCCNc1nc(Nc2ccc(Cl)cc2)nc(OCC)n1 [K036] | 46 | 
CCOc1nc(Nc2ccc(Cl)cc2)nc(NC2CCCCC2)n1 [K038] | 53 | 
CCCCCCNc1nc(Nc2ccc(I)cc2)nc(OC)n1 [K039] | 27 | 
COc1nc(NCCO)nc(Nc2ccc(I)cc2)n1 [K040] | 17 | 
C=CCNc1nc(Nc2ccc(I)cc2)nc(OC)n1 [K041] | 35 | 
COc1nc(Nc2ccc(I)cc2)nc(OC2CCCCC2)n1 [K042] | 15 | 
CCOc1nc(NCCO)nc(Nc2ccc(I)cc2)n1 [K043] | 19 | 
C=CCNc1nc(Nc2ccc(I)cc2)nc(OCC)n1 [K044] | 55 | 
CCOc1nc(NCCN2CCOCC2)nc(Nc2ccc(I)cc2)n1 [K045] | 15 | 
CCOc1nc(Nc2ccc(I)cc2)nc(NC2CCCCC2)n1 [K046] | 16 | 
COc1nc(NCCO)nc(Nc2ccc([N+](=O)[O-])cc2)n1 [K047] | 17 | 
C=CCNc1nc(Nc2ccc([N+](=O)[O-])cc2)nc(OC)n1 [K048] | 46 | 
CCOc1nc(NCCO)nc(Nc2ccc([N+](=O)[O-])cc2)n1 [K049] | 28 | 
C=CCNc1nc(Nc2ccc([N+](=O)[O-])cc2)nc(OCC)n1 [K050] | 66 | 
CCOc1nc(Nc2ccc([N+](=O)[O-])cc2)nc(NC2CCCCC2)n1 [K051] | 45 | 
C=CCNc1nc(Nc2ccc(I)cc2C)nc(OCC)n1 [K053] | 24 | 
CCOc1nc(Nc2ccc(I)cc2C)nc(NC2CCCCC2)n1 [K054] | 14 | 
